Experimental findings from patent US20230083885A1, “MODULATORS OF INTEGRATED STRESS RESPONSE PATHWAY” (Praxis Biotech LLC, priority 2021, published 2023) are described below.

The structures appear in SMILES notation. Where only a bound is given, the exact number is not on record here.

For the first assay, the system named is ATF4. Put plainly: ATF4 expression inhibition assay (ATF4 5'UTR luciferase reporter, thapsigargin-stressed). The class given is cell-based. The settings on record: Homo sapiens, HEK-293T, 3 h, read-out: ATF4 inhibition. The procedure: The ATF4 reporter was prepared by fusing the human full length 5′UTR of ATF4 (NCBI Accession No. BC022088.2) upstream of the firefly luciferase coding sequence lacking the initiator methionine. The fused sequence was cloned into pLenti-EF1a-C-Myc-DDK-IRES-Puro cloning vector (Origen #PS100085) using standard methods.
HEK293T cells carrying the ATF4 luciferase reporter were plated on 96-well plates (Nunc) at 10,000 cells per well. Cells were treated two days after seeding with 100 nM thapsigargin (Tg) (Sigma-Aldrich #T9033) in the presence of different concentrations of selected compounds ranging from 0.1 nM to 10 μM. Cells without treatment or cells treated with Tg alone were used as controls. Assay plates containing cells were incubated for 3 hours at 37° C.
Luciferase reactions were performed using Luciferase Assay System (Promega #E1501) as specified by the manufacturer. Luminescence was read with an integration time of 1 s and a gain of 110 using a Cytation-5 multi-mode microplate reader (BioTek).
For the compound `O=C(Nc1nc2cc(Cl)ccc2o1)[C@H]1CC[C@H](c2nnc(CO[C@H]3C[C@@H](OC(F)(F)F)C3)o2)CC1` [Compound 41, trans-N-(5-chlorobenzo[d]oxazol-2-yl)-4-(5-((cis-3-(trifluoromethoxy)cyclobutoxy)methyl)-1,3,4-oxadiazol-2-yl)cyclohexanecarboxamide], the IC50 is 100 to 1000 nM.

The assay is the same for the next values; noted with them: Homo sapiens, HEK-293T; HEK293T cells carrying ATF4 luciferase reporter, 100 nM thapsigargin, 3 hours; read-out: ATF4 inhibition.
Consider `O=C(COc1ccc(Cl)c(F)c1)N[C@H]1CC[C@H](c2nnc([C@@H]3CNc4cc(Cl)ccc4O3)o2)CC1` (single isomer, unassigned) [Compound 42], for which the IC50 is less than 10 nM.

In the case of `O=C(COc1ccc(Cl)c(F)c1)N[C@H]1CC[C@H](c2nnc(C3CNc4cc(Cl)ccc4O3)o2)CC1` (stereo partly drawn) [Compound 18, trans-N-(4-(5-(6-chloro-3,4-dihydro-2H-benzo[b][1,4]oxazin-2-yl)-1,3,4-oxadiazol-2-yl)cyclohexyl)-2-(4-chloro-3-fluorophenoxy)acetamide], the IC50 is less than 10 nM.

On to `O=C(COc1ccc(Cl)c(F)c1)N[C@H]1CC[C@H](c2nnc(Cc3ccc(Cl)cc3)o2)CC1` [Compound 238, 2-(4-chloro-3-fluorophenoxy)-N-(trans-4-(5-(4-chlorobenzyl)-1,3,4-oxadiazol-2-yl)cyclohexyl)acetamide], for which the IC50 was less than 10 nM.

With `O=C(Nc1ccc2cc(Cl)ccc2n1)[C@H]1CC[C@H](c2nnc(C3CNc4cc(Cl)ccc4O3)o2)CC1` (stereo partly drawn) [Compound 45, trans-4-(5-(6-chloro-3,4-dihydro-2H-benzo[b][1,4]oxazin-2-yl)-1,3,4-oxadiazol-2-yl)-N-(6-chloroquinolin-2-yl)cyclohexanecarboxamide], the IC50 fell in the range of 10 to 100 nM.

Take `O=C(Nc1ccc2cc(Cl)ccc2n1)C1CCN(c2nnc([C@H]3C[C@@H](OC(F)(F)F)C3)o2)CC1` [Compound 50, N-(6-chloroquinolin-2-yl)-1-(5-(cis-3-(trifluoromethoxy)cyclobutyl)-1,3,4-oxadiazol-2-yl)piperidine-4-carboxamide]: the IC50 was 100 to 1000 nM.

For the compound `O=C(COc1ccc(Cl)c(F)c1)NC[C@H]1CC[C@H](c2nnc(-c3ccc(Cl)cc3)o2)CC1` [Compound 3, trans-2-(4-chloro-3-fluorophenoxy)-N-((4-(5-(4-chlorophenyl)-1,3,4-oxadiazol-2-yl)cyclohexyl)methyl)acetamide], the IC50 lay in the range of 10 to 100 nM.

For `O=C(NN1CCC(c2nnc([C@H]3C[C@@H](OC(F)(F)F)C3)o2)CC1)c1cc2cc(Cl)ccc2o1` [Compound 251, 5-chloro-N-(4-(5-(cis-3-(trifluoromethoxy)cyclobutyl)-1,3,4-oxadiazol-2-yl)piperidin-1-yl)benzofuran-2-carboxamide], the IC50 is less than 10 nM.

Turning to `O=C(NC[C@H]1CC[C@H](c2nnc(-c3ccc(Cl)cc3)o2)CC1)c1ccc(C(F)(F)F)nc1` [Compound 21, trans-N-((4-(5-(4-chlorophenyl)-1,3,4-oxadiazol-2-yl)cyclohexyl)methyl)-6-(trifluoromethyl)nicotinamide], the IC50 fell in the range of 100 to 1000 nM.

As to `O=C(NCc1cc2cc(Cl)ccc2o1)[C@H]1CC[C@H](c2nnc(COc3ccc(Cl)cc3)o2)CC1` [Compound 53, trans-N-((5-chlorobenzofuran-2-yl)methyl)-4-(5-((4-chlorophenoxy)methyl)-1,3,4-oxadiazol-2-yl)cyclohexanecarboxamide], the IC50 lay within 100 to 1000 nM.

Regarding `O=C(Nc1nc2cc(Cl)ccc2s1)[C@H]1CC[C@H](c2nnc(CO[C@H]3C[C@@H](OC(F)(F)F)C3)o2)CC1` [Compound 39, trans-N-(5-chlorobenzo[d]thiazol-2-yl)-4-(5-((cis-3-(trifluoromethoxy)cyclobutoxy)methyl)-1,3,4-oxadiazol-2-yl)cyclohexanecarboxamide], the IC50 was more than 1000 nM.

As to `O=C(Nc1ccc2cc(Cl)ccc2n1)[C@H]1CC[C@H](c2nnc([C@H]3CNc4cc(Cl)ccc4O3)o2)CC1` (single isomer, unassigned) [Compound 246], the IC50 fell in the range of 100 to 1000 nM.

Take `O=C(Nc1ccc2cc(Cl)ccc2n1)C1CCN(c2nnc(-c3ccc(Cl)cc3)o2)CC1` [Compound 49, 1-(5-(4-chlorophenyl)-1,3,4-oxadiazol-2-yl)-N-(6-chloroquinolin-2-yl)piperidine-4-carboxamide]: the IC50 was in the range of 100 to 1000 nM.

In the case of `O=C(NN1CCC(c2nnc([C@H]3C[C@@H](OC(F)(F)F)C3)o2)CC1)C1CNc2cc(Cl)ccc2O1` (stereo partly drawn) [Compound 252, 6-chloro-N-(4-(5-((1s,3s)-3-(trifluoromethoxy)cyclobutyl)-1,3,4-oxadiazol-2-yl)piperidin-1-yl)-3,4-dihydro-2H-benzo[b][1,4]oxazine-2-carboxamide], the IC50 was less than 10 nM.

For `O=C(Nc1ccc2cc(Cl)ccc2n1)[C@H]1CC[C@H](c2nnc(COc3ccc(Cl)cc3)o2)CC1` [Compound 40, trans-4-(5-((4-chlorophenoxy)methyl)-1,3,4-oxadiazol-2-yl)-N-(6-chloroquinolin-2-yl)cyclohexanecarboxamide], the IC50 lay within 10 to 100 nM.

As for `O=C(NCc1cc2cc(Cl)ccc2o1)[C@H]1CC[C@H](c2nnc(-c3ccc(Cl)cc3)o2)CC1` [Compound 51, trans-N-((5-chlorobenzofuran-2-yl)methyl)-4-(5-(4-chlorophenyl)-1,3,4-oxadiazol-2-yl)cyclohexanecarboxamide], the IC50 lay in the range of 100 to 1000 nM.

As to `O=C(NC[C@H]1CC[C@H](c2nnc(-c3ccc(Cl)cc3)o2)CC1)[C@H]1C[C@@H](O)c2cc(Cl)ccc2O1` [Compound 253, (2R,4R)-6-chloro-N-((trans-4-(5-(4-chlorophenyl)-1,3,4-oxadiazol-2-yl)cyclohexyl)methyl)-4-hydroxychroman-2-carboxamide], the IC50 is 100 to 1000 nM.

Turning to `O=C(Nc1nc2cc(Cl)ccc2s1)[C@H]1CC[C@H](c2nnc([C@H]3C[C@@H](OC(F)(F)F)C3)o2)CC1` [Compound 52, trans-N-(5-chlorobenzo[d]thiazol-2-yl)-4-(5-(cis-3-(trifluoromethoxy)cyclobutyl)-1,3,4-oxadiazol-2-yl)cyclohexanecarboxamide], the IC50 is 10 to 100 nM.

For `O=C(NCc1cc2cc(Cl)ccc2o1)[C@H]1CC[C@H](c2nnc(-c3cc4cc(Cl)ccc4o3)o2)CC1` [Compound 54, trans-4-(5-(5-chlorobenzofuran-2-yl)-1,3,4-oxadiazol-2-yl)-N-((5-chlorobenzofuran-2-yl)methyl)cyclohexanecarboxamide], the IC50 is 100 to 1000 nM.

Take `O=C(NC[C@H]1CC[C@H](c2nnc(-c3ccc(Cl)cc3)o2)CC1)c1ccc(C(F)(F)F)cn1` [Compound 20, trans-N-((4-(5-(4-chlorophenyl)-1,3,4-oxadiazol-2-yl)cyclohexyl)methyl)-5-(trifluoromethyl)picolinamide]: the IC50 was in the range of 100 to 1000 nM.

Take `O=C(Nc1ccc2cc(Cl)ccc2n1)[C@H]1CC[C@H](c2nnc([C@H]3C[C@@H](C(F)(F)F)C3)o2)CC1` [Compound 248, trans-N-(6-chloroquinolin-2-yl)-4-(5-(cis-3-(trifluoromethyl)cyclobutyl)-1,3,4-oxadiazol-2-yl)cyclohexanecarboxamide]: the IC50 was 100 to 1000 nM.

Take `O=C(Nc1ccc2cc(Cl)ccc2n1)[C@H]1CC[C@H](c2nnc(CO[C@H]3C[C@@H](OC(F)(F)F)C3)o2)CC1` [Compound 38, trans-N-(6-chloroquinolin-2-yl)-4-(5-((cis-3-(trifluoromethoxy)cyclobutoxy)methyl)-1,3,4-oxadiazol-2-yl)cyclohexanecarboxamide]: the IC50 fell in the range of 100 to 1000 nM.

Take `O=C(Nc1nc2cc(Cl)ccc2o1)[C@H]1CC[C@H](c2nnc([C@H]3C[C@@H](OC(F)(F)F)C3)o2)CC1` [Compound 241, trans-N-(5-chlorobenzo[d]oxazol-2-yl)-4-(5-(3-(cis-trifluoromethoxy)cyclobutyl)-1,3,4-oxadiazol-2-yl)cyclohexanecarboxamide]: the IC50 lay within 100 to 1000 nM.

Consider `O=C(Nc1ccc2cc(Cl)ccc2n1)[C@H]1CC[C@@H](c2cnn(-c3ccc(Cl)cc3)c2)CC1` [Compound 249, cis-4-(1-(4-chlorophenyl)-1H-pyrazol-4-yl)-N-(6-chloroquinolin-2-yl)cyclohexanecarboxamide], for which the IC50 lay in the range of 100 to 1000 nM.

On to `O=C(Nc1ccc2cc(Cl)ccc2n1)[C@H]1CC[C@H](c2nnc([C@@H]3CNc4cc(Cl)ccc4O3)o2)CC1` (single isomer, unassigned) [Compound 245], for which the IC50 lay in the range of 100 to 1000 nM.

For another assay, the system named is Chinese hamster ovary (CHO) cells. The experiment in a line: Protein synthesis assay (puromycin incorporation, Western blot). The class given is cell-based. The settings on record: Cricetulus griseus; unstressed CHO cells (without Tg), 1 μM test compound, 2 hours; media alone = 100%; read-out: % Protein synthesis relative to untreated (1 μM test compound). How it is done:
Chinese hamster ovary (CHO) cells were maintained at 37° C. and 5% CO2 in Dulbecco's Modified Eagle's Media (DMEM) supplemented with 10% fetal bovine serum, 2 mM L-glutamine, 100 U/ml penicillin, and 100 μg/ml streptomycin. After reaching 80% of confluence, cells were detached and seeded on 6 well plates in complete media, allowed to recover overnight and treated for 2 hours with 1 μM of the test compound (to assess protein synthesis levels in unstressed condition), or for 2 hours with 300 nM Tg in the presence of 1 μM of the test compound (to assess the recovery of protein synthesis in a stressed condition). Cells with Tg alone were used as controls.
After the 2 hours treatments, media were replaced by adding 10 μg/ml puromycin (Sigma Aldrich #P8833) in complete media for 30 min. Media were removed and cells were lysed with SDS-PAGE lysis buffer. Lysates were transferred to 1.5 ml tubes and sonicated for 3 min and total protein amount were quantified using BCA Protein Assay Kit (Pierce). Equal amount of protein (30 μg) was loaded on SDS-PAGE gels.
A HRP-conjugated secondary antibody (Rockland) was employed to detect immune-reactive bands using enhanced chemiluminescence (ECL Western Blotting Substrate, Pierce). Quantification of protein bands was done by densitometry using ImageJ software.
The percentage levels were normalized to the media alone condition, which correspond to 100% protein synthesis. […]
`O=C(COc1ccc(Cl)c(F)c1)N[C@H]1CC[C@H](c2nnc([C@@H]3CNc4cc(Cl)ccc4O3)o2)CC1` (single isomer, unassigned) [Compound 42]: the activity at 1 µM stood at 79.9%.

Take `O=C(COc1ccc(Cl)c(F)c1)N[C@H]1CC[C@H](c2nnc(C3CNc4cc(Cl)ccc4O3)o2)CC1` (stereo partly drawn) [Compound 18, trans-N-(4-(5-(6-chloro-3,4-dihydro-2H-benzo[b][1,4]oxazin-2-yl)-1,3,4-oxadiazol-2-yl)cyclohexyl)-2-(4-chloro-3-fluorophenoxy)acetamide]: the activity at 1 µM was found to be 127%.

As for `O=C(COc1ccc(Cl)c(F)c1)N[C@H]1CC[C@H](c2nnc(Cc3ccc(Cl)cc3)o2)CC1` [Compound 238, 2-(4-chloro-3-fluorophenoxy)-N-(trans-4-(5-(4-chlorobenzyl)-1,3,4-oxadiazol-2-yl)cyclohexyl)acetamide], the activity at 1 µM turned out to be 74.6%.

As to `O=C(Nc1ccc2cc(Cl)ccc2n1)[C@H]1CC[C@H](c2nnc(C3CNc4cc(Cl)ccc4O3)o2)CC1` (stereo partly drawn) [Compound 45, trans-4-(5-(6-chloro-3,4-dihydro-2H-benzo[b][1,4]oxazin-2-yl)-1,3,4-oxadiazol-2-yl)-N-(6-chloroquinolin-2-yl)cyclohexanecarboxamide], the activity at 1 µM amounted to 81.8%.

On to `O=C(COc1ccc(Cl)c(F)c1)NC[C@H]1CC[C@H](c2nnc(-c3ccc(Cl)cc3)o2)CC1` [Compound 3, trans-2-(4-chloro-3-fluorophenoxy)-N-((4-(5-(4-chlorophenyl)-1,3,4-oxadiazol-2-yl)cyclohexyl)methyl)acetamide], for which the activity at 1 µM turned out to be 138%.
